{"source": "patent US20020010341A1", "about": "“Use of thioamide oxazolidinones for the treatment of bone resorption and osteoporosis” (priority 2000, published 2002)", "assay_type_in_all_cases": "in vivo", "key": {"rats [1]": {"system": "rats", "assay": "Pathogenesis of the bone changes, rats treated for 3 or 7 days", "conditions": "oral", "description": "(§1) The toxicity of the compound of Example 2 was evaluated in rats treated orally with 30, 60, 120, or 200 mg/kg/day of the compound of Example 2, water, or vehicle (containing 80% propylene glycol, 5% cremophor, and 30-mg/ml povidone) for 4 weeks given in 2 divided doses at 8 hours apart. Reversibility of drug-induced changes was determined 4 and 8 weeks following drug withdrawal. The pathogenesis of the bone changes was evaluated in a study in rats treated with 200 mg/kg/day for 3 or 7 days. TGF-betal protein levels in bone marrow supernatants and serum were determined using ELISA at the end of each of the dosing period. Toxicity was evaluated using clinical, hematological, biochemical, and pathologic end points."}, "rats [2]": {"system": "rats", "assay": "4-week oral toxicity study in rats with 4 and 8 week recovery", "description": "as §1"}, "TGF-betal protein": {"system": "TGF-betal protein", "assay": "TGF-betal protein levels in bone marrow supernatants and serum by ELISA", "conditions": "rats", "description": "as §1"}}, "data": [{"smiles": "CC(=S)NC[C@H]1CN(c2ccc(N3CC[S+]([O-])CC3)c(F)c2)C(=O)O1", "note": "[Example 2, (S)-N-[[3-[3-Fluoro-4-(4-thiomorpholinyl)phenyl] -2-oxo-5-oxazolidinyl]methyl]thio-acetamide, thiomorpholine S-oxide]", "values": [{"measurement": "onset of hyperostosis (osteoblast proliferation, osteoid deposition)", "setting": "rats [1]; 200 mg/kg/day for 3 or 7 days", "value": "became evident by Day 7"}, {"measurement": "osseous changes on Day 3", "setting": "rats [1]; 200 mg/kg/day, Day 3", "value": "no significant osseous changes"}, {"measurement": "persistence of newly formed bone spicules after drug withdrawal", "setting": "rats [2]; 4 and 8 weeks after drug withdrawal", "value": "still present after 4 and 8 weeks of drug withdrawal"}, {"measurement": "bone marrow changes", "setting": "rats [2]; oral", "value": "did not show changes other than hypocellularity related to hematopoietic suppression"}, {"measurement": "bone mass and density of trabecular (spongy) bone of sternum, femur/tibia, vertebrae, basal cranium", "setting": "rats [2]; oral, 120 and 200 mg/kg/day", "value": "caused an increase in bone mass and density (hyperostosis)"}, {"measurement": "endosteal cortical bone formation", "setting": "rats [2]; oral, 120 and 200 mg/kg/day", "value": "occurred rarely"}, {"measurement": "toxic effects", "setting": "rats [2]; oral, 120 and 200 mg/kg/day", "value": "anorexia, weight loss, GI effects, hematopoietic suppression and lymphoid depletion"}, {"measurement": "marrow cavity histology at Day 28", "setting": "rats [2]; oral, Day 28", "value": "marrow cavities were traversed by abundant normal looking trabecular bone"}, {"measurement": "clinical tolerability", "setting": "rats [2]; oral, all doses but 200 mg/kg/day (30, 60, 120 mg/kg/day), 4 weeks, 2 divided doses", "value": "well tolerated clinically"}, {"measurement": "Serum TGF-beta I", "setting": "TGF-betal protein; Day 3, ELISA", "value": "slightly but significantly decreased"}, {"measurement": "TGF-betal in marrow supernatants", "setting": "TGF-betal protein; Day 3, ELISA", "value": "modestly but significantly increased"}, {"measurement": "TGF-betal in marrow supernatants", "setting": "TGF-betal protein; Day 7 or 28, ELISA", "value": "not on Day 7 or 28"}]}]}
